Data: PMC6150234, “HPLC Analysis and Biochemical Characterization of LOX from Eschscholtzia californica Cham” (Molecules : A Journal of Synthetic Chemistry and Natural …, 2017)

Test system: T1, California poppy LOX (purified LOX from California poppy seedlings; 9/13-LOX)
T1 construct: 85 kDa on SDS-PAGE
Experiment: A234 spectrophotometry; Lineweaver-Burk
Type: biochemical, Eschscholzia californica
Details: 100 mM potassium phosphate pH 6.5, room temperature; 0.476-1.33 mM LA

CCCCC/C=C\C/C=C\CCCCCCCC(=O)O [linoleic acid]
Km: 2600 µM
